Results published in PMC4393181, “The Chemopotential Effect of Annona muricata Leaves against Azoxymethane-Induced Colonic Aberrant Crypt Foci in Rats and the Apoptotic Effect of Acetogenin Annomuricin E in HT-29 Cells: A Bioassay-Guided Approach” (PLoS ONE, 2015).
≈ marks a conversion by molar mass, not a printed value. Read-outs that look alike come from different tables or passages of the source. Each block holds one compound with its values, some of them ahead of it.

Legend:
[1] = system: HT-29 (human colon cancer cells); assay: MTT assay on HT-29 cells; type: cell-based; conditions: mean ± SEM of three experiments
Method: (§1) CCD841 (normal human colon epithelial cells) and HT-29 (human colon cancer cells) were purchased from the American Type Cell Collection (ATCC, Manassas, VA, USA). The cells were maintained at 37°C in a humidified atmosphere of 5% CO2. The culture medium consisted of Dulbecco’s Modified Eagles medium (Sigma) that was supplemented with 10% Fetal Bovine Serum (PAA Laboratories, Pasching, […]), 100 μg/ml streptomycin (Sigma) and 100 U/ml penicillin (Sigma). The untreated medium containing 0.1% vehicle DMSO was applied as the negative control for all of the assays in the in vitro study.
(§2) Cell viability analysis was performed using the MTT assay as described previously. In brief, cells (5 × 10^4 cells/ml) at the exponential phase of growth were seeded in a 96-well plate and treated with serial concentrations of the tested agent (0.62, 1.25, 2.5, 5, 10, 20, 40 and 80 μg/ml) for 12, 24 and 48 h. 5-FU, a standard anticancer drug, was used as a positive control in this assay. After incubation, 20 μl of the MTT solution (5.0 mg/ml, Sigma) was loaded into each well, and the cells were further incubated at 37°C for 4 h. DMSO (150 μl) was then used to dissolve the formazan crystals. The cytotoxicity against cancer and normal cells was measured at the absorbance of 570 nm using an ELISA reader (Asys UVM340, Eugendorf, Austria). The data were then processed, and the antiproliferative potential of the tested agents was expressed as IC50 values, the concentration that causes a 50% inhibition of cell growth.

[2] = system: CCD841 (normal human colon epithelial cells); assay: MTT assay on CCD841 cells; type: cell-based; conditions: mean ± SEM of three experiments
Method: as §1, §2

HT-29 cells [3] = assay: LDH release assay; type: cell-based, human; conditions: HT-29, 24 h, compared with 0.1% DMSO control
Method: To further confirm the cytotoxic effects of annomuricin E on HT-29 cells, the LDH release assay was performed using the Pierce LDH Cytotoxicity Assay Kit (Thermo Scientific, Pittsburgh, PA, USA) as previously described. Briefly, HT-29 cells at the exponential phase of growth were treated with different concentrations of annomuricin E and Triton X-100 (positive control) for 24 h. After the incubation, the treated HT-29 cells were exposed to the LDH reaction solution (100 μl) for 30 min. The red color intensity, representing the level of released LDH, was then measured at 490 nm using the Tecan Infinite 200 Pro (Tecan, Männedorf, Switzerland) microplate reader. The result of LDH release was calculated as a percentage of the positive control.

HT-29 cells [4] = assay: Cell cycle assay (PI staining, flow cytometry); type: cell-based, human; conditions: HT-29, IC50 concentration
Method: To determine the effect of annomuricin E on the cell cycle distribution, flow cytometric analysis was performed as described previously. […] After incubation, the treated HT-29 cells were harvested, washed twice with ice-cold PBS and fixed overnight at 4°C with 90% ethanol. The following day, the cells were washed and stained with propidium iodide (PI, 100 μl, 1 mg/ml). The cellular RNA was degraded using the enzyme RNAse A (200 μg/ml, Sigma). The stained cells were instantly examined using a BD FACSCanto II flow cytometer (BD Biosciences, San Jose, CA, USA) by analyzing 10,000 cells per sample. The data were processed using ModFit LT software (Verity Software House, Inc., Topsham, ME, USA).

HT-29 cells [5] = assay: Annexin V-FITC/PI detection of early and late apoptosis; type: cell-based, human; conditions: HT-29, IC50 concentration
Method: Flow cytometric analysis was performed to quantify early and late apoptosis in treated HT-29 cells using the commercial BD Pharmingen Annexin V-FITC Apoptosis Detection kit (APOAlert Annexin V; Clontech, Mountain View, CA, USA). […] After incubation, the treated cells were harvested, washed twice with PBS and suspended in the Annexin-V binding buffer. The cells were then supplemented with Annexin-V-FITC and PI, according to the vendor’s instructions. The stained cells were examined using a BD FACSCanto II flow cytometer. Early and late apoptotic cells and necrotic cells were quantitatively detected using a quadrant statistics analysis.

caspase 3/7 = assay: Caspase-Glo 3/7 luminescence assay; type: cell-based, human; conditions: HT-29, IC50 concentration, 12 to 48 h, vs control
Method: (§3) A luminescence-based analysis was performed to investigate the activity of caspase 3/7 and caspase 9 using the Caspase-Glo 9 Assay and Caspase-Glo 3/7 Assay commercial kits (Promega Corporation, Fitchburg, WI, USA) as described previously. […] After incubation, 100 μl of the caspase-Glo reagent was added to each well according to the manufacturer’s protocol. Luminescence, which represents the caspase activities, was measured using a luminescence microplate reader (Tecan Infinite 200 Pro).

caspase 9 = assay: Caspase-Glo 9 luminescence assay; type: cell-based, human; conditions: HT-29, IC50 concentration, 12 to 48 h, vs control
Method: as §3

HT-29 cells [6] = assay: Multiple cytotoxicity assay (Cellomics Multiparameter Cytotoxicity 3 Kit); type: cell-based, human
Method: The simultaneous analysis of critical apoptosis markers, namely cell membrane permeability, cytochrome c leakage from the mitochondria, mitochondrial membrane potential (MMP) and total nuclear intensity, in HT-29 cells was performed using the Cellomics Multiparameter Cytotoxicity 3 Kit (Cellomics, Pittsburgh, PA, USA) as previously described in detail. […] After incubation, the treated cells were stained with a cell permeability dye (FITC), a cytochrome c dye (Cy3), a mitochondrial membrane potential dye (Cy5) and a nuclear dye (Hoechst 33342), according to the vendor’s protocol. The plates were analyzed using a Cell Reporter cytofluorimeter system (Gentix/Molecular Devices, United Kingdom).

Bax [7] = assay: Q-PCR gene expression analysis of Bax; type: cell-based, human; conditions: HT-29, IC50 concentration, 48 h, normalized to β-actin
Method: (§4) The mRNA expression of two proteins, Bcl-2 and Bax, was quantified using real-time Q-PCR analysis as described previously with some modifications. […] The total RNA of treated cells was isolated using the RNeasy Plus Mini kit (Qiagen, Hilden, Germany) followed by the synthesis of the complementary DNA using the iScript cDNA synthesis kit (Biorad, Hercules, CA, USA). Q-PCR was performed on the StepOne PLUS real-time PCR machine (Applied Biosystems, Carlsbad, CA, USA). The β-actin housekeeping gene was used as a positive reference and was applied to normalize the target mRNA. The Q-PCR master mix was provided by Solaris Q-PCR Expression Assays (Thermo Fisher Scientific, Waltham, MA, USA) for the gene expression analysis of Bcl-2, AX-003307-00-0100; Bax, AX-003308-00-0100; and β-actin, AX-003451-00-0100.

Bcl-2 [8] = assay: Q-PCR gene expression analysis of Bcl-2; type: cell-based, human; conditions: HT-29, IC50 concentration, 12 to 48 h
Method: as §4

Bax [9] = assay: Immunofluorescence analysis of Bax; type: cell-based, human; conditions: HT-29, IC50 concentration, 48 h
Method: (§5) The perturbation in the protein expressions of Bcl-2 and Bax was investigated using immunofluorescence analysis as previously described in detail. […] After washing the cells twice with PBS, they were fixed in 4% paraformaldehyde at 25°C for 20 min prior to blocking with blocking buffer (0.03% Triton X-100/PBS and normal serum) for 1 h. The cells were then supplemented with a primary antibody solution and incubated overnight at 4°C. After incubation, the cells were treated with Bcl-2 and Bax flurochrome-conjugated secondary antibody (Santa Cruz Biotechnology, Santa Cruz, CA, USA) for 1 h. The cells were then washed twice with PBS prior to staining with DAPI. The stained cells were examined using the Cell Reporter cytofluorimeter system.

Bcl-2 [10] = assay: Immunofluorescence analysis of Bcl-2; type: cell-based, human; conditions: HT-29, IC50 concentration, 12, 24 and 48 h, compared with control
Method: as §5

AOM-induced colonic ACF = assay: Counting of AOM-induced colonic aberrant crypt foci (methylene blue staining); type: in vivo, Sprague Dawley rats; conditions: group E
Method: The experiment was performed as previously described in detail. Thirty male rats (n = 6 per group) in five groups (negative control, cancer control, low dose of EEAML, high dose of EEAML and treatment control) were subcutaneously injected once a week for two consecutive weeks according to the “Induction” column in Table 1. Then, all of the rodents were orally fed once a day for two months based on the experimental design (Table 1), except for the treatment control group, which was intra-peritoneally injected with 35 mg/kg of 5-FU (Sigma, St. Louis, MO, USA) for five consecutive days. The condition of the animals was observed every morning throughout the experimental period.
To determine the intensity of colonic ACF formation after 10 weeks of injection with AOM, ACF counting was performed as previously described in detail. In brief, rats were anesthetized with a high dose of ketamine (30 mg/kg, 100 mg/mL) and xylazine (3 mg/kg, 100 mg/mL) under aseptic conditions. The excised colon was flushed with phosphate buffered saline (PBS, Sigma), opened longitudinally and fixed flat between filter papers overnight at 4°C using 10% buffered formalin. Equal lengths of the proximal and distal portions of the fixed colons were stained with 0.5% methylene blue solution. After washing away the excess stain, topographic analysis was performed under a light microscope (Nikon, Tokyo, Japan) to score the total number of ACF, as well as the number of crypts per focus.

PCNA = assay: Immunohistochemistry of colon tissue sections, PCNA labeling index; type: in vivo, Sprague Dawley rats; conditions: 5-FU 35 mg/kg, colon tissue of AOM-induced rats (cancer control PI 81%, negative control 4%)
Method: (§6) Immunohistochemical evaluation of proliferating cell nuclear antigen (PCNA), Bax and Bcl-2 proteins was performed on deparaffinized tissue sections using the commercial Dako ARK Peroxidase kit (DAKO, Carpinteria, CA, USA) according to the vendor’s instructions. In brief, the antigen retrieval process of tissue sections was performed using 10 mM citrate buffer (pH 6.0); the tissue sections were then washed with PBS and blocked with peroxidase blocking buffer. Next, the tissue sections were incubated with diluted mouse PCNA (1:100, Cat: ab2426), Bax (1:100, Cat: ab7977) and Bcl-2 (1:100, Cat: ab7973) antibodies (Abcam, Cambridge, MA, USA) for 15 min. All of the slides were then incubated with the appropriate amount of streptavidin-HRP for 30 min at room temperature. The slides were developed with a diaminobenzidine (DAB) substrate-chromogen system and were counterstained in hematoxylin. The measurement of the PCNA labeling index (PI) was calculated using the formula below.
PI = number of positive cells/total number of epithelial cells ×100

Bax [11] = assay: Immunohistochemistry of colon tissue sections for Bax; type: in vivo, Sprague Dawley rats; conditions: AOM-induced rats; EEAML both doses (250 and 500 mg/kg), 5-FU 35 mg/kg
Method: as §6

Bcl-2 [12] = assay: Immunohistochemistry of colon tissue sections for Bcl-2; type: in vivo, Sprague Dawley rats; conditions: AOM-induced rats; EEAML both doses (250 and 500 mg/kg), 5-FU 35 mg/kg
Method: as §6

[13] = 5-FU 35 mg/kg intra-peritoneally for five consecutive days, AOM-induced rats

Compound: annomuricin E
IC50 ([1]; HT-29, 12 h): 5.72 ± 0.41 mg/L
IC50 ([1]; HT-29, 24 h): 3.49 ± 0.22 mg/L
IC50 ([1]; HT-29, 48 h): 1.62 ± 0.24 mg/L
IC50 ([2]; CCD841, 12 h): 64.32 ± 3.76 mg/L
IC50 ([2]; CCD841, 24 h): 47.10 ± 0.47 mg/L
IC50 ([2]; CCD841, 48 h): 32.51 ± 1.18 mg/L
Lowest concentration with significant LDH leakage (HT-29 cells [3]): 4 µg/mL
Percentage of cells arrested at the G1 phase (HT-29 cells [4]; 24 h): 89.65%
Percentage of cells arrested at the G1 phase (HT-29 cells [4]; 48 h): 94.60%
Percentage of late apoptotic cells (Annexin V+/PI+) (HT-29 cells [5]; 12 h (control 0.5%)): 6.9%
Percentage of early apoptotic cells (Annexin V+/PI-) (HT-29 cells [5]; 12 h (control 3.6%)): 13.9%
Percentage of early apoptotic cells (Annexin V+/PI-) (HT-29 cells [5]; 24 h (peak)): 27.3%
Percentage of late apoptotic cells (Annexin V+/PI+) (HT-29 cells [5]; 24 h (peak)): 13.6%
Caspase 3/7 activity (caspase 3/7): significantly elevated
Caspase 9 activity (caspase 9): significantly elevated
Total nuclear intensity (HT-29 cells [6]; HT-29, IC50 concentration, 12, 24 and 48 h): significantly elevated
Mitochondrial membrane potential (MMP) (HT-29 cells [6]; HT-29, IC50 concentration, 12 h): significant collapse
Cytochrome c leakage from the mitochondria (HT-29 cells [6]; HT-29, IC50 concentration, from 12 h, time-dependent): increase in cytochrome c leakage
Cell membrane permeability (HT-29 cells [6]; HT-29, IC50 concentration, only 24 and 48 h): significantly increased
Bax mRNA expression, increase relative to control (Bax [7]): approximately 5 fold
Bcl-2 mRNA expression (Bcl-2 [8]): time-dependently reduced
Bax protein expression (FITC fluorescent intensity), increase relative to control (Bax [9]): approximately 10 fold
Bcl-2 protein expression (Bcl-2 [10]): significantly and dose-dependently reduced

IC50 ([1]; Homo sapiens, HT-29, 12 h, read-out: IC50): 4.85 ± 0.38 mg/L (≈ 37.3 µM)
IC50 ([1]; Homo sapiens, HT-29, 24 h, read-out: IC50): 2.96 ± 0.43 mg/L (≈ 22.8 µM)
IC50 ([1]; Homo sapiens, HT-29, 48 h, read-out: IC50): 1.5 ± 0.17 mg/L (≈ 11.5 µM)
Compound: O=c1[nH]cc(F)c(=O)[nH]1 [5-FU, 5-fluorouracil]
No. of crypts per ACF: 1 crypt (AOM-induced colonic ACF; [13]): 12 ± 0.26
No. of crypts per ACF: 2 crypt (AOM-induced colonic ACF; [13]): 6 ± 0.45
No. of crypts per ACF: 3 crypt (AOM-induced colonic ACF; [13]): 7 ± 0.78
No. of crypts per ACF: 4 crypt and more (AOM-induced colonic ACF; [13]): 4 ± 0.18
Total ACF (AOM-induced colonic ACF; [13]): 29 ± 1.40
Inhibition of ACF formation (AOM-induced colonic ACF; 5-FU 35 mg/kg intra-peritoneally, compared with cancer control): 79.5%
PCNA labeling index (PI) (PCNA): 24%
Bax expression in colon tissues (Bax [11]): up-regulation
Bcl-2 expression in colon tissues (Bcl-2 [12]): down-regulation
IC50 ([2]; Homo sapiens, CCD-841, CCD841, 12 h, read-out: IC50): 58.5 ± 2.09 mg/L (≈ 450 µM)
IC50 ([2]; Homo sapiens, CCD-841, CCD841, 24 h, read-out: IC50): 44.4 ± 2.25 mg/L (≈ 341 µM)
IC50 ([2]; Homo sapiens, CCD-841, CCD841, 48 h, read-out: IC50): 36.3 ± 0.43 mg/L (≈ 279 µM)
